Data reported in ChEMBL document CHEMBL1152132 (2008).
pEC50: −log10 of the molar value. The source made the active and inactive calls. The rule behind the calls is not given here.

Tests used:
Endothelial cell = assay: Binding affinity to Pgp in bovine brain microvessel endothelial cells assessed as increase in rhodamine uptake at 10 uM relative to control; assay type: cell-based; conditions: Bos taurus
[1] = Ratio of compound ED50 to paclitaxel ED50 for tubulin assembly
NCI/ADR-RES [2] = assay: Ratio of compound ED50 to paclitaxel ED50 for human NCI/ADR-RES cells; assay type: functional
MCF7 [3] = assay: Ratio of compound ED50 to paclitaxel ED50 for human MCF7 cells; assay type: functional
MCF7 [4] = assay: Cytotoxicity against human MCF7 cells; assay type: functional; conditions: read-out: ED50 (the source's name)
NCI/ADR-RES [5] = assay: Cytotoxicity against human NCI/ADR-RES cells; assay type: functional; conditions: read-out: ED50 (the source's name)

Row | Ratio ED50 [1] | SMILES | Activity (Endothelial cell) | Ratio ED50 (NCI/ADR-RES [2]) | Ratio ED50 (MCF7 [3]) | pEC50 (MCF7 [4]) | pEC50 (NCI/ADR-RES [5])
1 | 1 | COC(=O)CCC(=O)O[C@H]1C(=O)[C@@]2(C)[C@H]([C@H](OC(=O)c3ccccc3)[C@]3(O)C[C@H](OC(=O)[C@H](O)[C@@H](NC(=O)c4ccccc4)c4ccccc4)C(C)=C1C3(C)C)[C@]1(OC(C)=O)CO[C@@H]1C[C@@H]2O | – | 0.4 | 2.5 | – | –
2 | 3.8 | CC(=O)O[C@H]1C(=O)[C@]2(C)[C@@H](OC(=O)CCC(=O)O)C[C@H]3OC[C@@]3(OC(C)=O)[C@H]2[C@H](OC(=O)c2ccccc2)[C@]2(O)C[C@H](OC(=O)[C@H](O)[C@@H](NC(=O)c3ccccc3)c3ccccc3)C(C)=C1C2(C)C | – | – | – | – | –
3 | 2.2 | CC(=O)O[C@@]12CO[C@@H]1C[C@H](O)[C@@]1(C)C(=O)[C@H](OC(=O)CCCC(=O)N(C)C)C3=C(C)[C@@H](OC(=O)[C@H](O)[C@@H](NC(=O)c4ccccc4)c4ccccc4)C[C@@](O)([C@@H](OC(=O)c4ccccc4)[C@H]21)C3(C)C | Active | – | – | – | –
4 | 0.6 | CC(=O)O[C@H]1C(=O)[C@]2(C)[C@@H](OC(=O)CCC(N)=O)C[C@H]3OC[C@@]3(OC(C)=O)[C@H]2[C@H](OC(=O)c2ccccc2)[C@]2(O)C[C@H](OC(=O)[C@H](O)[C@@H](NC(=O)c3ccccc3)c3ccccc3)C(C)=C1C2(C)C | Active | – | – | – | –
5 | 1.7 | CC(=O)O[C@@]12CO[C@@H]1C[C@H](O)[C@@]1(C)C(=O)[C@H](OC(=O)CCC(=O)O)C3=C(C)[C@@H](OC(=O)[C@H](O)[C@@H](NC(=O)c4ccccc4)c4ccccc4)C[C@@](O)([C@@H](OC(=O)c4ccccc4)[C@H]21)C3(C)C | – | – | – | – | –
6 | 1.8 | CNC(=O)CCCC(=O)O[C@H]1C(=O)[C@@]2(C)[C@H]([C@H](OC(=O)c3ccccc3)[C@]3(O)C[C@H](OC(=O)[C@H](O)[C@@H](NC(=O)c4ccccc4)c4ccccc4)C(C)=C1C3(C)C)[C@]1(OC(C)=O)CO[C@@H]1C[C@@H]2O | Active | – | – | – | –
7 | 1 | CC(=O)O[C@H]1C(=O)[C@]2(C)[C@@H](OC(=O)CCCC(=O)O)C[C@H]3OC[C@@]3(OC(C)=O)[C@H]2[C@H](OC(=O)c2ccccc2)[C@]2(O)C[C@H](OC(=O)[C@H](O)[C@@H](NC(=O)c3ccccc3)c3ccccc3)C(C)=C1C2(C)C | – | – | – | – | –

Second part, the compound before the results:

Row | SMILES | Ratio ED50 [1] | Activity (Endothelial cell) | Ratio ED50 (NCI/ADR-RES [2]) | Ratio ED50 (MCF7 [3]) | pEC50 (MCF7 [4]) | pEC50 (NCI/ADR-RES [5])
8 | CC(=O)O[C@H]1C(=O)[C@]2(C)[C@@H](OC(=O)CCCC(N)=O)C[C@H]3OC[C@@]3(OC(C)=O)[C@H]2[C@H](OC(=O)c2ccccc2)[C@]2(O)C[C@H](OC(=O)[C@H](O)[C@@H](NC(=O)c3ccccc3)c3ccccc3)C(C)=C1C2(C)C | 0.6 | Active | – | – | – | –
9 | CC(=O)O[C@@]12CO[C@@H]1C[C@H](O)[C@@]1(C)C(=O)[C@H](OC(=O)CCC(N)=O)C3=C(C)[C@@H](OC(=O)[C@H](O)[C@@H](NC(=O)c4ccccc4)c4ccccc4)C[C@@](O)([C@@H](OC(=O)c4ccccc4)[C@H]21)C3(C)C | 0.4 | Active | 6 | 10 | – | –
10 | CNC(=O)CCCC(=O)O[C@H]1C[C@H]2OC[C@@]2(OC(C)=O)[C@H]2[C@H](OC(=O)c3ccccc3)[C@]3(O)C[C@H](OC(=O)[C@H](O)[C@@H](NC(=O)c4ccccc4)c4ccccc4)C(C)=C([C@@H](OC(C)=O)C(=O)[C@]12C)C3(C)C | 0.8 | Active | 3.2 | 3.7 | – | –
11 | CC(=O)O[C@@]12CO[C@@H]1C[C@H](O)[C@@]1(C)C(=O)[C@H](OC(=O)CCCC(N)=O)C3=C(C)[C@@H](OC(=O)[C@H](O)[C@@H](NC(=O)c4ccccc4)c4ccccc4)C[C@@](O)([C@@H](OC(=O)c4ccccc4)[C@H]21)C3(C)C | 1.8 | Active | – | – | – | –
12 | CC(=O)O[C@@]12CO[C@@H]1C[C@H](O)[C@@]1(C)C(=O)[C@H](OC(=O)CCC(=O)N(C)C)C3=C(C)[C@@H](OC(=O)[C@H](O)[C@@H](NC(=O)c4ccccc4)c4ccccc4)C[C@@](O)([C@@H](OC(=O)c4ccccc4)[C@H]21)C3(C)C | 1.6 | Active | 2.7 | 2.1 | – | –
13 | CC(=O)O[C@@]12CO[C@@H]1C[C@H](O)[C@@]1(C)C(=O)[C@H](OC(=O)CCCC(=O)O)C3=C(C)[C@@H](OC(=O)[C@H](O)[C@@H](NC(=O)c4ccccc4)c4ccccc4)C[C@@](O)([C@@H](OC(=O)c4ccccc4)[C@H]21)C3(C)C | 1.8 | – | – | – | – | –
14 | CC(=O)O[C@H]1C(=O)[C@]2(C)[C@@H](OC(=O)CCC(=O)N(C)C)C[C@H]3OC[C@@]3(OC(C)=O)[C@H]2[C@H](OC(=O)c2ccccc2)[C@]2(O)C[C@H](OC(=O)[C@H](O)[C@@H](NC(=O)c3ccccc3)c3ccccc3)C(C)=C1C2(C)C | 1.1 | Active | – | – | – | –
15 | CC(=O)O[C@H]1C(=O)[C@@]2(C)[C@H]([C@H](OC(=O)c3ccccc3)[C@]3(O)C[C@H](OC(=O)[C@H](O)[C@@H](NC(=O)c4ccccc4)c4ccccc4)C(C)=C1C3(C)C)[C@]1(OC(C)=O)CO[C@@H]1C[C@@H]2O [PACLITAXEL] | – | – | – | – | 8.49 | 5.82
16 | CNC(=O)CCC(=O)O[C@H]1C[C@H]2OC[C@@]2(OC(C)=O)[C@H]2[C@H](OC(=O)c3ccccc3)[C@]3(O)C[C@H](OC(=O)[C@H](O)[C@@H](NC(=O)c4ccccc4)c4ccccc4)C(C)=C([C@@H](OC(C)=O)C(=O)[C@]12C)C3(C)C | 0.8 | Active | – | – | – | –
17 | CC(=O)O[C@H]1C(=O)[C@]2(C)[C@@H](OC(=O)CCCC(=O)N(C)C)C[C@H]3OC[C@@]3(OC(C)=O)[C@H]2[C@H](OC(=O)c2ccccc2)[C@]2(O)C[C@H](OC(=O)[C@H](O)[C@@H](NC(=O)c3ccccc3)c3ccccc3)C(C)=C1C2(C)C | 0.7 | Active | – | – | – | –
18 | CNC(=O)CCC(=O)O[C@H]1C(=O)[C@@]2(C)[C@H]([C@H](OC(=O)c3ccccc3)[C@]3(O)C[C@H](OC(=O)[C@H](O)[C@@H](NC(=O)c4ccccc4)c4ccccc4)C(C)=C1C3(C)C)[C@]1(OC(C)=O)CO[C@@H]1C[C@@H]2O | 0.8 | Active | 6 | 7.9 | – | –
19 | COC(=O)CCC(=O)O[C@H]1C[C@H]2OC[C@@]2(OC(C)=O)[C@H]2[C@H](OC(=O)c3ccccc3)[C@]3(O)C[C@H](OC(=O)[C@H](O)[C@@H](NC(=O)c4ccccc4)c4ccccc4)C(C)=C([C@@H](OC(C)=O)C(=O)[C@]12C)C3(C)C | 1.2 | Active | – | – | – | –
